# Test results reported in article PMC4980831 (Arzneimittel-Forschung, 2009).
# Assays:
# PDE11 = PDE11 (Homo sapiens, UniProt Q9HCR9); assay: IMAP fluorescence polarization PDE assay; format: biochemical
# PDE5 = PDE5 (Homo sapiens, UniProt O76074); assay: IMAP fluorescence polarization PDE assay; format: biochemical
# Chain of PDE11 (Q9HCR9 whole entry): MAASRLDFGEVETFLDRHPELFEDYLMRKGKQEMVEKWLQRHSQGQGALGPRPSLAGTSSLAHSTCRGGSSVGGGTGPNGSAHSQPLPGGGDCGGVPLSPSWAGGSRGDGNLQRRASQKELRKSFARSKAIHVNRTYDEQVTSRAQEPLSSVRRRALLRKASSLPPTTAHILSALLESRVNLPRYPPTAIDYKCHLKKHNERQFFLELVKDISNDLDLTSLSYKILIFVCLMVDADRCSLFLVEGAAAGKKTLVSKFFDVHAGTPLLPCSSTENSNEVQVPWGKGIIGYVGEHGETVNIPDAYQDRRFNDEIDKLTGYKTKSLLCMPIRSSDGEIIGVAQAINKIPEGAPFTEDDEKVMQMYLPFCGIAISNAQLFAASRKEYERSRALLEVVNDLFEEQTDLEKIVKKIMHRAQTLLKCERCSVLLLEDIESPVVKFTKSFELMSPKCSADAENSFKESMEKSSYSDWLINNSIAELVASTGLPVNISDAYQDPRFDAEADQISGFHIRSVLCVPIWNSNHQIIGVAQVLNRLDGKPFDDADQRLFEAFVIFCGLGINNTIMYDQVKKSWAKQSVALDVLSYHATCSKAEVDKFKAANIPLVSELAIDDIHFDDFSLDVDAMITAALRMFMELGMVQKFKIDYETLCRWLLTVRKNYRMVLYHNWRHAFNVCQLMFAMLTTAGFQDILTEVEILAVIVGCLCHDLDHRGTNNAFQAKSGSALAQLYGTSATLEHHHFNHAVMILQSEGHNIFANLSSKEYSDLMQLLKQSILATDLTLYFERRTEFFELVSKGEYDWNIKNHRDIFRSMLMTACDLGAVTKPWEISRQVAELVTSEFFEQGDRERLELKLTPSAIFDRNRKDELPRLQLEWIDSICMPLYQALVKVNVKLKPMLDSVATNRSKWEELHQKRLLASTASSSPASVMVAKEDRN
SMILES,IC50 (PDE11),IC50 (PDE5)
"CC1=C(CC(=O)O)c2cc(F)ccc2/C1=C\c1ccc(S(C)(=O)=O)cc1 [Exisulind, reference compound]",> 300 µM,295 ± 1.11 µM
"COC(=O)[C@H]1Cc2c([nH]c3ccccc23)[C@@H](c2cc(OC)ccc2OC)N1 [I, Methyl (1R,3R)-1-(2,5-dimethoxyphenyl)-2,3,4,9-tetrahydro-1H-β-carboline-3-carboxylate]",> 100 µM,3.9 ± 1.09 µM
"COC(=O)[C@H]1Cc2c([nH]c3ccccc23)[C@H](c2cc(OC)ccc2OC)N1 [II, Methyl (1S,3R)-1-(2,5-dimethoxyphenyl)-2,3,4,9-tetrahydro-1H-β-carboline-3-carboxylate]",> 100 µM,> 100 µM
"COC(=O)[C@@H]1Cc2c([nH]c3ccccc23)[C@H](c2cc(OC)ccc2OC)N1 [III, Methyl (1S,3S)-1-(2,5-dimethoxyphenyl)-2,3,4,9-tetrahydro-1H-β-carboline-3-carboxylate]",> 100 µM,14.3 ± 1.09 µM
"COC(=O)[C@@H]1Cc2c([nH]c3ccccc23)[C@@H](c2cc(OC)ccc2OC)N1 [IV, Methyl (1R,3S)-1-(2,5-dimethoxyphenyl)-2,3,4,9-tetrahydro-1H-β-carboline-3-carboxylate]",> 100 µM,17.4 ± 1.09 µM
"CCN1C(=O)[C@@H]2Cc3c([nH]c4ccccc34)[C@@H](c3cc(OC)ccc3OC)N2C1=S [IX, (5R,11aS)-2-ethyl-1-oxo-5-(2,5-dimethoxyphe-nyl)-5,6,11,11a-tetrahydro-1H-imidazo[1′,5′:1,6] pyrido[3,4-b]indole-3 (2H)-thione]",> 100 µM,78.6 ± 1.14 µM
"CCN1C(=O)[C@H]2Cc3c([nH]c4ccccc34)[C@@H](c3cc(OC)ccc3OC)N2C1=O [V, (5R,11aR)-2-Ethyl-5-(2,5-dimethoxyphenyl)-5,6,11,11a-tetrahydro-1H-imidazo[1′,5′:1,6]pyrido [3,4-b]indole-1,3(2H)-dione]",> 100 µM,5 ± 1.14 µM

# Now from value to compound:
IC50 (PDE11),IC50 (PDE5),SMILES
> 100 µM,> 100 µM,"CCN1C(=O)[C@H]2Cc3c([nH]c4ccccc34)[C@H](c3cc(OC)ccc3OC)N2C1=O [VI, (5S,11aR)-2-Ethyl-5-(2,5-dimethoxyphenyl)-5,6,11,11^a-tetrahydro-1H-imidazo[1′,5′:1,6]pyrido [3,4-b]indole-1,3(2H)-dione]"
> 100 µM,> 100 µM,"CCN1C(=O)[C@@H]2Cc3c([nH]c4ccccc34)[C@H](c3cc(OC)ccc3OC)N2C1=O [VII, (5S,11aS)-2-Ethyl-5-(2,5-dimethoxyphenyl)-5,6,11,11a-tetrahydro-1H-imidazo[1′,5′:1,6]pyrido [3,4-b]indole-1,3(2H)-dione]"
> 100 µM,87.4 ± 1.1 µM,"CCN1C(=O)[C@@H]2Cc3c([nH]c4ccccc34)[C@@H](c3cc(OC)ccc3OC)N2C1=O [VIII, (5R,11aS)-2-Ethyl-5-(2,5-dimethoxyphenyl)-5,6,11,11a-tetrahydro-1H-imidazo[1′,5′:1,6]pyrido [3,4-b]indole-1,3(2H)-dione]"
> 100 µM,> 100 µM,"CCN1C(=O)[C@H]2Cc3c([nH]c4ccccc34)[C@H](c3cc(OC)ccc3OC)N2C1=S [X, (5S,11aR)-2-ethyl-1-oxo-5-(2,5-dimethoxy-phenyl)-5,6,11,11a-tetrahydro-1H-imidazo [1′,5′:1,6]pyrido[3,4-b]indole-3 (2H)-thione]"
